Kd data for two compounds are collected here from article PMC6478789, “A chemical toolbox for the study of bromodomains and epigenetic signaling” (Nature Communications, 2019).

Targets include FALZ (Homo sapiens, UniProt Q12830); CECR2 (Homo sapiens, UniProt Q9BXF3); BRD3(1,2) (Homo sapiens, UniProt Q15059); BRD4(2) (Homo sapiens, UniProt O60885); BRD4(1,2) (Homo sapiens, UniProt O60885); BRDT(1) (Homo sapiens, UniProt Q58F21); BRDT(1,2) (Homo sapiens, UniProt Q58F21).
What all share (assay): BROMOscan ligand-binding assay
Another assay has as its target T1, TAF1(2) (Homo sapiens, UniProt P21675).
T1 sequence (P21675 1519-1628 limits assumed): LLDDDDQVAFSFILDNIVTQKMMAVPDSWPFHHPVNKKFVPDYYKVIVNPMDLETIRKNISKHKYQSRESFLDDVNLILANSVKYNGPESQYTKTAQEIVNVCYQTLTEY

In a further assay the target is T2, TRIM33(PHD,BRD) (Homo sapiens, UniProt Q9UPN9).
T2 sequence (Q9UPN9 882-1087 limits assumed): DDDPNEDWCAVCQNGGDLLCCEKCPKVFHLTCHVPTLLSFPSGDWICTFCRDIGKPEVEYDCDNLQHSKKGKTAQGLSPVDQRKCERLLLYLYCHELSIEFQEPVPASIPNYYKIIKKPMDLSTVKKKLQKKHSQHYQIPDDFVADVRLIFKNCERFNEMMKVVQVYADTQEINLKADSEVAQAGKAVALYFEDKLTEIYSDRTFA

For another assay, the target named is T3, GCN5L2 (Homo sapiens, UniProt Q92830).
T3 sequence (Q92830 728-832 limits assumed): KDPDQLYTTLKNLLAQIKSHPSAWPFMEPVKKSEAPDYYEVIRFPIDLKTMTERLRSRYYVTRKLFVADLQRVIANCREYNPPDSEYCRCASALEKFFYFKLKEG

The target in the next assay is T4, ATAD2B (Homo sapiens, UniProt Q9ULI0).
T4 sequence (Q9ULI0 951-1066 limits assumed): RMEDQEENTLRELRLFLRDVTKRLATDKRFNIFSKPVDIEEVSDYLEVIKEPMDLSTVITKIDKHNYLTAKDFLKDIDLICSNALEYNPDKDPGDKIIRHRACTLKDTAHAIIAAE

In another assay the target is T5, BRD1 (Homo sapiens, UniProt O95696).
T5 sequence (O95696 562-666 limits assumed): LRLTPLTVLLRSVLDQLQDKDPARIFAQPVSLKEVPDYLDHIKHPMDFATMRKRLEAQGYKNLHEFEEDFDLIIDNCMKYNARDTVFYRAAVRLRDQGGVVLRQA

In a further assay the target is T6, PCAF (Homo sapiens, UniProt Q92831).
T6 sequence (Q92831 723-827 limits assumed): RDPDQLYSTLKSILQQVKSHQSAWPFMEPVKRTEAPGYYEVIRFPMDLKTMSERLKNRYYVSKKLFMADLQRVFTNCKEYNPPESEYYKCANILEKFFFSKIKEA

Another assay has as its target T7, BAZ2A (Homo sapiens, UniProt Q9UIF9).
T7 sequence (Q9UIF9 1793-1897 limits assumed): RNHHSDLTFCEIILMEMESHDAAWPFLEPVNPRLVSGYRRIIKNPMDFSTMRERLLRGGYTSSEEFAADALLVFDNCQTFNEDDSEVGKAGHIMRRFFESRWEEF

For a further assay, the target named is T8, ATAD2A (Homo sapiens, UniProt Q6PL18).
T8 sequence (Q6PL18 980-1092 limits assumed): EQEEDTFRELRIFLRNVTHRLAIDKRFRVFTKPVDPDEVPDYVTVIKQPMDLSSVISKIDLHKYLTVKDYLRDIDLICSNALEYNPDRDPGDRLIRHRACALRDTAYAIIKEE

A further assay concerns the target T9, BRD9 (Homo sapiens, UniProt Q9H8M2).
T9 sequence (Q9H8M2 136-240 limits assumed): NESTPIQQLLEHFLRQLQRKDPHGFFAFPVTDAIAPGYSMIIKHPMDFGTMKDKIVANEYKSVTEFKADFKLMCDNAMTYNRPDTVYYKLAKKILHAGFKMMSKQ

Another assay concerns the target T10, BRD7 (Homo sapiens, UniProt Q9NPI1).
T10 sequence (Q9NPI1 131-235 limits assumed): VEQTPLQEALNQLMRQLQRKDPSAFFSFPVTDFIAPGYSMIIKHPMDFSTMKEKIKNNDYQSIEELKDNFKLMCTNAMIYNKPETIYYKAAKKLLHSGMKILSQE

The target in another assay is T11, TAF1L(2) (Homo sapiens, UniProt Q8IZX4).
T11 sequence (Q8IZX4 1517-1626 limits assumed): T1 sequence (P21675 1519-1628 limits assumed) with V46M, M51V, V102I, L107I

In the next assay the target is T12, EP300 (Homo sapiens, UniProt Q09472).
T12 sequence (Q09472 1049-1156 limits assumed): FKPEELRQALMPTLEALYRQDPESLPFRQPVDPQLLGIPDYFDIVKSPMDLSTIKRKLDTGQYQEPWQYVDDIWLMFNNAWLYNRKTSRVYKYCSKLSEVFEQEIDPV

Where a chain is given by its changes, count along the chain named. Read-outs that look alike come from different tables or passages of the source. Where only a bound is given, the exact number is not on record here.

CECR2, sequence (Q9BXF3 434-538 limits assumed): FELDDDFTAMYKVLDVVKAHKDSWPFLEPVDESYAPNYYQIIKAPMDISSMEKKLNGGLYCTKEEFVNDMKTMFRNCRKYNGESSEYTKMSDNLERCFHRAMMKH
BRD3(1,2), sequence (Q15059 24-416 limits assumed): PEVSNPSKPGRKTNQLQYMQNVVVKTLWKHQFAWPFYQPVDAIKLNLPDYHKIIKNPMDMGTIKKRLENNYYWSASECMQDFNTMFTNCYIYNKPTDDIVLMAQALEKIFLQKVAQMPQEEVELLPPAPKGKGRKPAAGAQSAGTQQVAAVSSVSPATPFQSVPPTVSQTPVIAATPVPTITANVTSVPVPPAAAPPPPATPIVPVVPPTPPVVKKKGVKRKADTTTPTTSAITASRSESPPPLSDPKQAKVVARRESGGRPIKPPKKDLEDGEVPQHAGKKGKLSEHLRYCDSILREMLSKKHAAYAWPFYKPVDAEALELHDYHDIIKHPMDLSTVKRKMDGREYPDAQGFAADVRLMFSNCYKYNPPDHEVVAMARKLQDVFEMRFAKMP
Description for ATAD2A: (§1) BROMOscan is a binding assay based on the well-known KINOMEscan technology. This assay measures the binding of a DNA-tagged bromodomain to an immobilized BRD ligand. If an inhibitor is present, it will compete with the bromodomain binding to the immobilized ligand, resulting in reduction of a quantitative PCR (qPCR) signal in a dose-dependent manner.
Description for ATAD2B: as §1
Description for BAZ2A: as §1
Description for BRD1: as §1
Description for BRD3(1,2): as §1
Description for BRD4(1,2): as §1
Description for BRD4(2): as §1
Description for BRD7: as §1
Description for BRD9: as §1
Description for BRDT(1): as §1
Description for BRDT(1,2): as §1
Description for CECR2: as §1
Description for EP300: as §1
Description for FALZ: as §1
Description for GCN5L2: as §1
Description for PCAF: as §1
Description for TAF1(2): as §1
Description for TAF1L(2): as §1
Description for TRIM33(PHD,BRD): as §1

By Kd is commonly meant the free concentration of one partner at which half of the binding sites on the other are occupied at equilibrium, for simple one-to-one binding. Read a high Kd as lower affinity. Turning to `O=C(C=CN1[C@H]2CC[C@@H]1c1ncnc(NC3CC3)c1C2)c1ccccc1O` [PFI-3 D1], the dissociation constant Kd is > 30 µM on FALZ (BROMOscan, FALZ); > 30 µM at CECR2 (BROMOscan, CECR2); > 30 µM on TAF1(2) (BROMOscan, TAF1(2)); > 30 µM at TRIM33(PHD,BRD) (BROMOscan, TRIM33(PHD,Bromo.)); > 30 µM on BRD3(1,2) (BROMOscan, BRD3(1,2)); 23 µM at GCN5L2 (BROMOscan, GCN5L2). The Kd is > 30 µM on BRD4(2) (BROMOscan, BRD4(2)); > 30 µM at ATAD2B (BROMOscan, ATAD2B); > 30 µM on BRD1 (BROMOscan, BRD1); > 30 µM on PCAF (BROMOscan, PCAF); > 30 µM at BAZ2A (BROMOscan, BAZ2A); > 30 µM on BRD4(1,2) (BROMOscan, BRD4(1,2)). Further, the Kd at BRDT(1) (BROMOscan, BRDT(1)) was 24 µM; at ATAD2A (BROMOscan, ATAD2A) it was > 30 µM; at BRD9 (BROMOscan, BRD9), > 30 µM; at BRD7 (BROMOscan, BRD7), > 30 µM; at BRDT(1,2) (BROMOscan, BRDT(1,2)), > 30 µM; on TAF1L(2) (BROMOscan, TAF1L(2)) it was > 30 µM. In addition, on EP300 (BROMOscan, EP300), the Kd was > 30 µM.

Turning to `CCCS(=O)(=O)c1nc(NC2CC2)cc(-c2ccc3c(ccn3C3CC(C)(C)NC(C)(C)C3)c2)n1` [NVS-CECR2-1], the dissociation constant (Kd) on FALZ was 0.36 µM; at CECR2 it was 0.014 µM; on TAF1(2) it was 2.1 µM; on TRIM33(PHD,BRD) it was > 30 µM; on BRD3(1,2), > 30 µM; at GCN5L2 it was > 30 µM. Moreover, the Kd was 5.7 µM at BRD4(2); > 30 µM at ATAD2B; > 30 µM at BRD1; > 30 µM on PCAF; > 30 µM at BAZ2A; 12 µM on BRD4(1,2). Also, the Kd was > 30 µM on BRDT(1); > 30 µM at ATAD2A; 2.1 µM on BRD9; 6.8 µM at BRD7; 14 µM at BRDT(1,2); 9.6 µM at TAF1L(2). Further, the Kd on EP300 is > 30 µM.
